One molecule from patent publication US5886178A, “3-aroylbenzylpyridazinone derivatives” (Syntex (U.S.A.) Inc., priority 1997, dated 1999) can be followed below.

Each structure is given as a SMILES string.

The test system of experiment [1] is prostaglandin E2 synthesis. Put plainly: Inhibition of eicosanoid (PGE2) synthesis in vivo, carrageenan air-pouch model in rats. The arrangement: species or system rat. The settings on record: 10 mg/Kg, oral, male rats. The procedure: In this assay, an air-pouch is created in the rat and the PGE2 levels in the air-pouch exudate are measured by enzyme immunoassay. Briefly, male rats were anesthetized using a 60:40 CO2 :O2 mixture and subsequently injected subcutaneously with 20 ml of sterilized air, under aseptic conditions, in the proximal area of the dorsum. This injection of sterile air causes the creation of a subcutaneous "air pouch". The next day, a further 10 ml of sterile air was injected into the previously formed pouch using the same technique. […] Control rats received vehicle alone. After 30 minutes, 5 ml of a 0.5% solution of carrageenan (Sigma, Lambda Type IV) was injected into the air pouch. The rats were euthanized 3 hr after the compound administration. […] The total exudate volume was recorded, and the samples were analyzed for PGE2 and 6-keto PGF1 by ELISA (Titerzyme®, PerSeptive Diagnostics) and TxB2 by radioimmuno assay (New England Nuclear Research, Catalog No. NEK-037), according to the manufacturer's directions.
The mean concentrations of PGE2 were calculated for each group. The anti-inflammatory activity of test materials is expressed as the percent inhibition of PGE2 formation in the test group relative to the control group.

In experiment [2] the target is T1, COX I (Homo sapiens, UniProt P23219). Put plainly: Inhibition of COX I in vitro, partially purified enzyme, radiometric assay. Format: biochemical. Also noted: made in house. The settings on record: 20 micromolar arachidonic acid. The procedure:
(§1) The COX I and COX II inhibitory activity of compounds of this invention in vitro was determined using partially purified COX I and COX II enzymes, prepared as described in J. Barnett et al, Biochim. Biophys.
(§2) COX I and COX II samples were diluted with Tris-HCl buffer (50 mM Tris-HCl, pH 7.9) containing 2 mM EDTA and 10% glycerol and reconstituted by incubating first with 2 mM phenol for 5 minutes and then with 1 micromolar hematin for an additional 5 minutes. 125 μl of the reconstituted COX I or COX II enzyme were preincubated for 10 minutes at room temperature in a shaking water bath with the compounds of the invention dissolved in 2-15 μl of DMSO or the carrier vehicles (control samples). The enzyme reaction was initiated by adding 25 μl of 1-[14C]arachidonic acid (80,000-100,000 cpm/tube; 20 micromolar final concentration) and the reaction was allowed to continue for an additional 45 seconds. The reaction was terminated by adding 100 μl of 2N HCl and 750 μl water. An aliquot (950 μl) of the reaction mixture was loaded onto a 1 ml C18 Sep-Pak column (J. T. Baker, Phillipsburg, N.J.) which had been previously washed with 2-3 ml methanol and equilibrated with 5-6 ml distilled water. Oxygenated products were quantitatively eluted with 3 ml of acetonitrile/water/acetic acid (50:50:0.1, v/v) and the radioactivity in the eluate determined in a scintillation counter.

For the next experiment, the target named is T2, COX II (Homo sapiens, UniProt P35354).
T2 sequence (P35354 18-604): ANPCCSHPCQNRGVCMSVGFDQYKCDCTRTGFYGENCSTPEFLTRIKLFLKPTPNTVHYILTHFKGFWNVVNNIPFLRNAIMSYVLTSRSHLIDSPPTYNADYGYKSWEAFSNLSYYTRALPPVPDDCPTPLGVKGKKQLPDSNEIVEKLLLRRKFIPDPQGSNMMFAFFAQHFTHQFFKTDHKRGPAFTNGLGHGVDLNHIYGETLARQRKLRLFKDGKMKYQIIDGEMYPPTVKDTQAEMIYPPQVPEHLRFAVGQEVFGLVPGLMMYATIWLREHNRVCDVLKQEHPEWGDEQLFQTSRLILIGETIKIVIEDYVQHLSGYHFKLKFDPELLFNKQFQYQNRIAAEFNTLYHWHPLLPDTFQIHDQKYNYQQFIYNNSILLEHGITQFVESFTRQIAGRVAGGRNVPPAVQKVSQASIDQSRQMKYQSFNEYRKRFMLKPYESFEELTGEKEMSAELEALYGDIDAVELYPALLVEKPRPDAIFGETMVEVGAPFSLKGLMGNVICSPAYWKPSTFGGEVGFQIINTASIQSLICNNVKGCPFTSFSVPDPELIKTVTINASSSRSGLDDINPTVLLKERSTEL
Put plainly: Inhibition of COX II in vitro, partially purified enzyme, radiometric assay. The class given is biochemical. Also noted: made in house. The settings on record: 20 micromolar arachidonic acid. On the procedure: as §1, §2

For experiment [3], the target named is T1, COX I. The experiment is described as follows: Inhibition of COX I in a cell based assay (human promonocytic THP cells, TXB2 ELISA). The arrangement: endogenous in cells; host or cells: human promonocytic THP cells, PMA-treated. The procedure: The COX I and COX II inhibitory activity of compounds of this invention in a cell based assay was determined as described below.
The inhibitory activity of the test compounds against cell associated COX-1 was measured using human promonocytic THP cells. Cells were plated in 96-well microtiter plates at a density of 8×10^4 cells/well in RPMI-1640 medium (Gibco). COX-1 activity was initiated by incubating the cells with 0.1μM phorbol 12-myristate 13-acetate (PMA, Sigma) in dimethyl sulfoxide (DMSO, Aldrich) at 37° C. After 40-48 hours, the medium was removed, and the cells were washed twice with phosphate buffered saline (PBS, Gibco). 225 μl/well of fresh medium containing desired concentrations of the test compounds in DMSO, or the carrier vehicles (control wells), was added and the cells incubated at 37° C. for 30 minutes; after which 5 μM calcium ionophore A23187 (Sigma) was added and the incubation was continued for an additional 10 minutes. The reaction was terminated by transferring the plates to ice. The culture supernatants were transferred and appropriately diluted and the amount of thromboxane B2 (TXB2) present in each supernatant was quantitated using an ELISA kit (Cayman Chemicals).
The COX I and COX II inhibitory activities in the cell based assay (expressed as IC50) of some compounds of the invention were: […]
On the technique in general: ELISA stands for enzyme-linked immunosorbent assay.

T1 sequence (P23219 24-599): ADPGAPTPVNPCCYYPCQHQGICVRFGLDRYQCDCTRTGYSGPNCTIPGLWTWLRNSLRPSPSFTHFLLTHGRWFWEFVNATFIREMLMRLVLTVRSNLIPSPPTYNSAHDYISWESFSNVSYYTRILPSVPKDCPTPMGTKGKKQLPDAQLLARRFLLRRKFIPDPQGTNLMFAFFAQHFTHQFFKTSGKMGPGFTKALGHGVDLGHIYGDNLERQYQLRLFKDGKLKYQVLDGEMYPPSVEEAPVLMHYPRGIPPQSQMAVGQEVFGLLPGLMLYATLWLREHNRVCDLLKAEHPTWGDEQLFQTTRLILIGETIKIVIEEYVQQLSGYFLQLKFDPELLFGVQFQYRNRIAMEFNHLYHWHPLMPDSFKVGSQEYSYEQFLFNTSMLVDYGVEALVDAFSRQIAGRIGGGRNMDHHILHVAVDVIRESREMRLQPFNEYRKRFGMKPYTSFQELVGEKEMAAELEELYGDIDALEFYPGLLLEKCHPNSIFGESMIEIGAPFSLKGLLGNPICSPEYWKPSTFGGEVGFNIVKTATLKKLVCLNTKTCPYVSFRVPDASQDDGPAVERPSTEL

Usually IC50 stands for the midpoint of a concentration-inhibition curve. With `COc1ccc(C(=O)c2cccc(Cc3ccc(=O)[nH]n3)c2C)cc1` [Cpd 11, 6-[3-(4-methoxybenzoyl)-2-methylbenzyl]-2H-pyridazin-3-one], the “% inhibition of air pouch PGE2 formation” value in experiment [1] was 80%. Also, the IC50 amounted to 391 µM against COX I [2], 1.8 µM against COX II and 4.8 µM against COX I [3].
